Values belong to the molecule of their own block, whether it stands above or below them. Activity calls are given as the source filed them. No cut-off for these calls is given here.
What was measured:
Trypanosoma cruzi [1] = assay: Antitrypanosomal activity against amastigote stage of Trypanosoma cruzi IRHOD/CO/2008/SN3 infected in African green monkey Vero cells assessed as parasite growth inhibition after 72 hrs by Giemsa staining-based microscopic analysis; type: functional, organism-based; settings: IRHOD/CO/2008/SN3, Vero
Vero = assay: Cytotoxicity against African green monkey Vero cells assessed as cell viability after 72 hrs by propidium iodide/fluorescein diacetate staining-based flow cytometric analysis; settings: Chlorocebus sabaeus
[2] = Selectivity index, ratio of IC50 for African green monkey Vero cells to IC50 for amastigote stage of Trypanosoma cruzi IRHOD/CO/2008/SN3 infected in African green monkey Vero cells; type: toxicity, cell-based; settings: read-out: Ratio IC50
Trypanosoma cruzi [3] = assay: Antitrypanosomal activity against epimastigote stage of Trypanosoma cruzi IRHOD/CO/2008/SN3 assessed as parasite growth inhibition after 72 hrs by Neubauer hemocytometric chamber analysis; type: functional, organism-based; settings: IRHOD/CO/2008/SN3, 72 h
[4] = Selectivity index, ratio of IC50 for African green monkey Vero cells to IC50 for epimastigote stage of Trypanosoma cruzi IRHOD/CO/2008/SN3; type: toxicity, cell-based; settings: read-out: Ratio IC50
Mus musculus [5] = assay: Toxicity in BALB/c albino mouse infected with blood trypomastigote stage of Trypanosoma cruzi assessed as change in alkaline phosphatase level in serum at 25 mg/kg, ip administered on day 7 to 12 post-infection measured after day 120 relative to control; type: organism-based; set-up: dose 25 mg/kg, route intraperitoneal; settings: in vivo
Trypanosoma cruzi [6] = assay: Antitrypanosomal activity against epimastigote stage of Trypanosoma cruzi IRHOD/CO/2008/SN3 assessed as change in excreted succinate level at IC25 after 96 hrs by 1H NMR analysis relative to control; type: functional
Mus musculus [7] = assay: Toxicity in BALB/c albino mouse infected with blood trypomastigote stage of Trypanosoma cruzi assessed as change in total bilirubin level in serum at 25 mg/kg, ip administered on day 7 to 12 post-infection measured after day 120 relative to control; type: organism-based; set-up: dose 25 mg/kg, route intraperitoneal; settings: in vivo
Mus musculus [8] = assay: Toxicity in BALB/c albino mouse infected with blood trypomastigote stage of Trypanosoma cruzi assessed as change in urea level in serum at 25 mg/kg, ip administered on day 7 to 12 post-infection measured after day 120 relative to control; type: organism-based; set-up: dose 25 mg/kg, route intraperitoneal; settings: in vivo
Trypanosoma cruzi [9] = assay: Antitrypanosomal activity against epimastigote stage of Trypanosoma cruzi IRHOD/CO/2008/SN3 assessed as mortality at IC25 after 72 hrs by TEM analysis; type: functional, organism-based
Trypanosoma cruzi [10] = assay: Antitrypanosomal activity against epimastigote stage of Trypanosoma cruzi IRHOD/CO/2008/SN3 assessed as formation of electron-dense vacuoles at IC25 after 72 hrs by TEM analysis; type: functional, organism-based
Mus musculus [11] = assay: Toxicity in BALB/c albino mouse infected with blood trypomastigote stage of Trypanosoma cruzi assessed as change in LDH level in serum at 25 mg/kg, ip administered on day 7 to 12 post-infection measured after day 120 relative to control; type: organism-based; set-up: dose 25 mg/kg, route intraperitoneal; settings: in vivo
Trypanosoma cruzi [12] = assay: Trypanocidal activity against metacyclic trypomastigote stage of Trypanosoma cruzi infected in BALB/c albino mouse acute chagas disease model assessed as reduction of parasite burden at 25 mg/kg, ip administered on day 7 to 12 post-infection measured on day 14 by ELISA; type: functional, organism-based; set-up: dose 25 mg/kg
Mus musculus [13] = assay: Toxicity in BALB/c albino mouse infected with blood trypomastigote stage of Trypanosoma cruzi assessed as increase in uric acid level in serum at 25 mg/kg, ip administered on day 7 to 12 post-infection measured after day 120 relative to control; type: organism-based; set-up: dose 25 mg/kg, route intraperitoneal; settings: in vivo
Mus musculus [14] = assay: Toxicity in BALB/c albino mouse infected with blood trypomastigote stage of Trypanosoma cruzi assessed as increase in AST/GOT level in serum at 25 mg/kg, ip administered on day 7 to 12 post-infection measured after day 120 relative to control; type: organism-based; set-up: dose 25 mg/kg, route intraperitoneal; settings: in vivo
Trypanosoma cruzi [15] = assay: Antitrypanosomal activity against epimastigote stage of Trypanosoma cruzi IRHOD/CO/2008/SN3 assessed as appearance of swollen structure filled with empty vacuoles at IC25 after 72 hrs by TEM analysis; type: functional, organism-based
Trypanosoma cruzi [16] = assay: Antitrypanosomal activity against epimastigote stage of Trypanosoma cruzi IRHOD/CO/2008/SN3 assessed as change in excreted alanine level at IC25 after 96 hrs by 1H NMR analysis relative to control; type: functional
Mus musculus [17] = assay: Toxicity in BALB/c albino mouse assessed as mortality at 25 mg/kg, ip administered for 5 days; type: organism-based; set-up: dose 25 mg/kg, route intraperitoneal; settings: in vivo, 120 h
Trypanosoma cruzi [18] = assay: Antitrypanosomal activity against epimastigote stage of Trypanosoma cruzi IRHOD/CO/2008/SN3 assessed as change in excreted pyruvate level at IC25 after 96 hrs by 1H NMR analysis relative to control; type: functional
Trypanosoma cruzi [19] = assay: (§1) Antitrypanosomal activity against amastigote stage of Trypanosoma cruzi IRHOD/CO/2008/SN3 infected in African green monkey Vero cells assessed as reduction of amastigote number per cell at IC25 preincubated for 12 hrs followed by compound washout measured every 48 hrs for 10 days by Neubauer hemocytometric chamber analysis relative to control; type: functional
Trypanosoma cruzi [20] = assay: Trypanocidal activity against metacyclic trypomastigote stage of Trypanosoma cruzi infected in BALB/c albino mouse acute chagas disease model assessed as inhibition of parasitemia at 25 mg/kg, ip administered on day 7 to 12 post-infection measured every 2 days until day 40 […] relative to control; type: functional; settings: route intraperitoneal
Trypanosoma cruzi [21] = assay: Antitrypanosomal activity against epimastigote stage of Trypanosoma cruzi IRHOD/CO/2008/SN3 assessed as change in excreted lactate level at IC25 after 96 hrs by 1H NMR analysis relative to control; type: functional
Mus musculus [22] = assay: Toxicity in BALB/c albino mouse infected with blood trypomastigote stage of Trypanosoma cruzi assessed as increase in creatinephophokinase-MB level in serum at 25 mg/kg, ip administered on day 7 to 12 post-infection measured after day 120 relative to control; type: organism-based; set-up: dose 25 mg/kg, route intraperitoneal; settings: in vivo
Mus musculus [23] = assay: Toxicity in BALB/c albino mouse infected with blood trypomastigote stage of Trypanosoma cruzi assessed as change in ALT/GPT level in serum at 25 mg/kg, ip administered on day 7 to 12 post-infection measured after day 120 relative to control; type: organism-based; set-up: dose 25 mg/kg, route intraperitoneal; settings: in vivo
Trypanosoma cruzi [24] = assay: Antitrypanosomal activity against epimastigote stage of Trypanosoma cruzi IRHOD/CO/2008/SN3 assessed as change in excreted acetate level at IC25 after 96 hrs by 1H NMR analysis relative to control; type: functional
Trypanosoma cruzi [25] = assay: Antitrypanosomal activity against epimastigote stage of Trypanosoma cruzi IRHOD/CO/2008/SN3 assessed as appearance of enormous reservosomes at IC25 after 72 hrs by TEM analysis; type: functional, organism-based
Trypanosoma cruzi [26] = assay: as §1, with “trypomastigote” for “amastigote”, “IRHOD/CO/2008/SN3” for “IRHOD/CO/2008/SN3 infected in African green monkey Vero cells”, “mililiter of culture medium” for “cell”; type: functional
Trypanosoma cruzi [27] = assay: as §1, with “decrease in infection rate” for “reduction of amastigote number per cell”; type: functional

SMILES: CCCCNc1c(NCC[N+](C)(C)C)c(=O)c1=O
- IC50 (Trypanosoma cruzi [1]): 38.5 µM
- IC50 (Vero): 57.6 µM
- selectivity ratio [2]: 1.5
- IC50 (Trypanosoma cruzi [3]): 107 µM
- selectivity ratio [4]: 0.5

SMILES: CN(CCCNc1c(NCCC[N+](C)(C)C)c(=O)c1=O)CCCNc1c(NCCC[N+](C)(C)C)c(=O)c1=O.[I-].[I-]
- IC50 (Trypanosoma cruzi [1]): 17.1 µM
- Activity (Mus musculus [5]): < 10%
- Activity (Trypanosoma cruzi [6]): -21.2%
- Activity (Mus musculus [7]): < 10%
- Activity (Mus musculus [8]): < 10%
- Activity (Trypanosoma cruzi [9]): Active
- Activity (Trypanosoma cruzi [10]): Active
- Activity (Mus musculus [11]): < 10%
- Activity (Trypanosoma cruzi [12]): Active
- Activity (Mus musculus [13]): 30%
- IC50 (Vero): 301 µM
- Activity (Mus musculus [14]): 40%
- Activity (Trypanosoma cruzi [15]): Active
- Activity (Trypanosoma cruzi [16]): -13.3%
- Activity (Mus musculus [17]): Non-toxic
- Activity (Trypanosoma cruzi [18]): 37.4%
- inhibition (INH) (Trypanosoma cruzi [19]): 30%
- inhibition in vivo at 25 mg/kg (Trypanosoma cruzi [20]): 37%
- Activity (Trypanosoma cruzi [21]): -20.6%
- Activity (Mus musculus [22]): 30%
- selectivity ratio [2]: 17.5
- IC50 (Trypanosoma cruzi [3]): 18.5 µM
- Activity (Mus musculus [23]): < 10%
- Activity (Trypanosoma cruzi [24]): -12%
- Activity (Trypanosoma cruzi [25]): Active
- inhibition (INH) (Trypanosoma cruzi [26]): 49%
- selectivity ratio [4]: 16.2
- inhibition (INH) (Trypanosoma cruzi [27]): 30%

SMILES: CN(C)CCCNc1c(NCCCNc2c(NCCCN(C)C)c(=O)c2=O)c(=O)c1=O
- IC50 (Trypanosoma cruzi [1]): 46 µM
- IC50 (Vero): 11.4 µM
- selectivity ratio [2]: 0.2
- IC50 (Trypanosoma cruzi [3]): 96.2 µM
- selectivity ratio [4]: 0.1

SMILES: C[N+](C)(C)CCNc1c(NCc2ccccc2)c(=O)c1=O
- IC50 (Trypanosoma cruzi [1]): 39.2 µM
- IC50 (Vero): 74.2 µM
- selectivity ratio [2]: 1.9
- IC50 (Trypanosoma cruzi [3]): 60.8 µM
- selectivity ratio [4]: 1.2

SMILES: CCCCNc1c(NCCCC(=O)O)c(=O)c1=O
- IC50 (Trypanosoma cruzi [1]): 66.9 µM
- IC50 (Vero): 21.6 µM
- selectivity ratio [2]: 0.3
- IC50 (Trypanosoma cruzi [3]): 17.3 µM
- selectivity ratio [4]: 1.2

Continued, in another order:

- IC50 (Trypanosoma cruzi [1]): 26.3 µM
- IC50 (Trypanosoma cruzi [3]): 44.9 µM
SMILES: CCCCCCCCCCCCCCCCNc1c(NCC[N+](C)(C)C)c(=O)c1=O
- IC50 (Vero): 151 µM
- selectivity ratio [2]: 5.7
- selectivity ratio [4]: 3.4

- IC50 (Trypanosoma cruzi [1]): 10.1 µM
- IC50 (Trypanosoma cruzi [3]): 15.9 µM
SMILES: CN(C)c1ccc(Nc2c(O)c(=O)c2=O)cc1
- IC50 (Vero): 12.9 µM
- selectivity ratio [2]: 1.3
- selectivity ratio [4]: 0.8

- IC50 (Trypanosoma cruzi [1]): 34.7 µM
- IC50 (Trypanosoma cruzi [3]): 96.9 µM
SMILES: O=c1c(NCc2ccccc2)c(NC2CCN(Cc3ccccc3)CC2)c1=O
- IC50 (Vero): 338 µM
- selectivity ratio [2]: 9.7
- selectivity ratio [4]: 3.5

From ChEMBL document CHEMBL3124761, “Synthesis and biological evaluation of N,N'-squaramides with high in vivo efficacy and low toxicity: toward a low-cost drug against Chagas disease” (J Med Chem, 2014)
